Assay [1] has as its system Pseudomonas aeruginosa. As to the kind of experiment: Antibacterial activity against Pseudomonas aeruginosa after 16 hr by serial dilution method. Format: functional.
Assay [2] deals with Escherichia coli. As to the kind of experiment: Antibacterial activity against Escherichia coli after 16 hr by serial dilution method. Format: functional.
For assay [3], the system named is Bacillus subtilis. Description: Antibacterial activity against Bacillus subtilis after 16 hr by serial dilution method. The assay is classed as functional.
The subject of assay [4] is Staphylococcus aureus. Description: Antibacterial activity against Staphylococcus aureus after 16 hr by serial dilution method. The assay is classed as functional.
Assay [5] concerns Pseudomonas aeruginosa. As to the kind of experiment: Antibacterial activity against Pseudomonas aeruginosa at 1.6125 ug/ml after 16 hr by serial dilution method. Format: functional, organism-based.
Assay [6] concerns Escherichia coli. Description: Antibacterial activity against Escherichia coli at 1.6125 ug/ml after 16 hr by serial dilution method. Format: functional, organism-based.
The subject of assay [7] is Bacillus subtilis. As to the kind of experiment: Antibacterial activity against Bacillus subtilis at 1.6125 ug/ml after 16 hr by serial dilution method. The assay is classed as functional, organism-based.
Assay [8] has as its system Staphylococcus aureus. As to the kind of experiment: Antibacterial activity against Staphylococcus aureus at 1.6125 ug/ml after 16 hr by serial dilution method. The assay is classed as functional, organism-based.

Structures are written as SMILES. Converted amounts (≈) assume the structure as drawn. The source made the active and inactive calls. No cut-off for these calls is given here.

As to `CCOC(=O)c1cnn(C2CCNCC2)c1-c1ccccc1`, the MIC (as a rule, the least concentration at which growth counts as inhibited) against Pseudomonas aeruginosa [1] is 1.61 µg/mL (≈ 5.39 µM); against Escherichia coli [2], 1.61 µg/mL (≈ 5.39 µM); with Bacillus subtilis [3], 3.12 µg/mL (≈ 10.4 µM); in the assay with Staphylococcus aureus [4] it was 3.12 µg/mL (≈ 10.4 µM).

Turning to `CCOC(=O)c1cnn(-c2ccc3ccccc3n2)c1-c1ccccc1`, the MIC against Pseudomonas aeruginosa [1] turned out to be 3.12 µg/mL (≈ 9.1 µM); with Escherichia coli [2] it was 6.25 µg/mL (≈ 18.2 µM); against Bacillus subtilis [3], 3.12 µg/mL (≈ 9.1 µM); against Staphylococcus aureus [4], 3.12 µg/mL (≈ 9.1 µM).

For `CCOC(=O)c1cnn(-c2ccc(C)cc2)c1-c1ccccc1`, the result with Pseudomonas aeruginosa [5], in the assay on Escherichia coli [6], with Bacillus subtilis [7] and with Staphylococcus aureus [8] was inactive.

As for `CCOC(=O)c1cnn(-c2ccc(C(=O)O)cc2)c1-c1ccccc1`, the MIC with Pseudomonas aeruginosa [1] was determined as 25 µg/mL (≈ 74.3 µM); in the assay with Staphylococcus aureus [4] it was 50 µg/mL (≈ 149 µM). Moreover, the result in the assay with Escherichia coli [6] and in the assay on Bacillus subtilis [7] was inactive.

As for `CCOC(=O)c1cnn(-c2ccc(C(C)(C)C)cc2)c1-c1ccccc1`, the MIC in the assay with Pseudomonas aeruginosa [1] and against Bacillus subtilis [3] was 12.5 µg/mL (≈ 35.9 µM) throughout. Also, the result with Escherichia coli [6] and with Staphylococcus aureus [8] was inactive.

Turning to `CCOC(=O)c1cnn(C)c1-c1ccccc1`, the outcome in the assay on Pseudomonas aeruginosa [5], in the assay on Escherichia coli [6], with Bacillus subtilis [7] and with Staphylococcus aureus [8] was inactive.

Turning to `CCOC(=O)c1cnn(-c2ccc(Cl)cc2Cl)c1-c1ccccc1`, the MIC in the assay on Pseudomonas aeruginosa [1] came out at 3.25 µg/mL (≈ 9 µM); in the assay with Escherichia coli [2], 1.61 µg/mL (≈ 4.47 µM); against Bacillus subtilis [3] it was 1.61 µg/mL (≈ 4.47 µM); in the assay with Staphylococcus aureus [4] it was 1.61 µg/mL (≈ 4.47 µM).

As to `CCOC(=O)c1cnn(-c2ccc(F)cc2)c1-c1ccccc1`, the MIC in the assay on Pseudomonas aeruginosa [1] was found to be 1.61 µg/mL (≈ 5.2 µM); in the assay with Escherichia coli [2] it was 1.61 µg/mL (≈ 5.2 µM); with Bacillus subtilis [3], 3.12 µg/mL (≈ 10.1 µM); in the assay on Staphylococcus aureus [4], 6.25 µg/mL (≈ 20.1 µM).

Take `CCOC(=O)c1cnn(-c2ccccc2Br)c1-c1ccccc1`: the MIC against Pseudomonas aeruginosa [1] was found to be 1.61 µg/mL (≈ 4.34 µM); in the assay on Escherichia coli [2], 1.61 µg/mL (≈ 4.34 µM); in the assay on Bacillus subtilis [3], 1.61 µg/mL (≈ 4.34 µM); in the assay on Staphylococcus aureus [4], 3.12 µg/mL (≈ 8.42 µM).

As to `CCOC(=O)c1cnn(-c2ccc(C(F)(F)F)cc2)c1-c1ccccc1`, the MIC against Pseudomonas aeruginosa [1] turned out to be 1.61 µg/mL (≈ 4.48 µM); against Escherichia coli [2] it was 1.61 µg/mL (≈ 4.48 µM); against Bacillus subtilis [3], 1.61 µg/mL (≈ 4.48 µM); in the assay on Staphylococcus aureus [4], 3.12 µg/mL (≈ 8.67 µM).

For the compound `CO/N=C(\C(=O)N[C@@H]1C(=O)N2C(C(=O)O)=C(CSc3nc(=O)c(O)nn3C)CS[C@H]12)c1csc(N)n1` [CEFTRIAXONE], the MIC in the assay with Pseudomonas aeruginosa [1] was determined as 1.61 µg/mL (≈ 2.91 µM); against Escherichia coli [2], 1.61 µg/mL (≈ 2.91 µM); against Bacillus subtilis [3] it was 1.61 µg/mL (≈ 2.91 µM); against Staphylococcus aureus [4], 3.12 µg/mL (≈ 5.63 µM).

`CCOC(=O)c1cnn(C(C)(C)C)c1-c1ccccc1`: the outcome with Pseudomonas aeruginosa [5], in the assay with Escherichia coli [6], in the assay on Bacillus subtilis [7] and with Staphylococcus aureus [8] was inactive.

`CCOC(=O)c1cnn(C2CCCCC2)c1-c1ccccc1`: the MIC in the assay on Pseudomonas aeruginosa [1] was determined as 6.25 µg/mL (≈ 20.9 µM); in the assay with Escherichia coli [2], 12.5 µg/mL (≈ 41.9 µM); in the assay on Bacillus subtilis [3] it was 6.25 µg/mL (≈ 20.9 µM); against Staphylococcus aureus [4], 6.25 µg/mL (≈ 20.9 µM).

These data come from ChEMBL document CHEMBL3046750, “Synthesis, characterization and antimicrobial activity of novel ethyl 1-(N-substituted)-5-phenyl-1H-pyrazole-4-carboxylate derivatives” (2012).
